Experimental data: article PMC11956013, “Structure–Activity Relationships and Evaluation of 2-(Heteroaryl-cycloalkyl)-1H-indoles as Tauopathy Positron Emission Tomography Radiotracers” (Journal of Medicinal Chemistry, 2025)

How the values were obtained:
GABA transaminase = GABA transaminase (Rattus norvegicus, UniProt P50554); test: GABA transaminase, Eurofins assay 461; assay type: biochemical; settings: Enzymatic activity; 1.0E-05 M
5-HT transporter (h) = 5-HT transporter (h) (Homo sapiens, UniProt P31645); test: Eurofins panel: 5-HT transporter (h) (antagonist radioligand); settings: 1.0E-05 M
CB2 (h) = CB2 (h) (Homo sapiens, UniProt P34972); test: CB2 (h) (agonist radioligand), Eurofins assay 37
SKCa channel = settings: compound concentration 1.0E-05 M

Sequence of CB2 (h) (P34972 whole entry): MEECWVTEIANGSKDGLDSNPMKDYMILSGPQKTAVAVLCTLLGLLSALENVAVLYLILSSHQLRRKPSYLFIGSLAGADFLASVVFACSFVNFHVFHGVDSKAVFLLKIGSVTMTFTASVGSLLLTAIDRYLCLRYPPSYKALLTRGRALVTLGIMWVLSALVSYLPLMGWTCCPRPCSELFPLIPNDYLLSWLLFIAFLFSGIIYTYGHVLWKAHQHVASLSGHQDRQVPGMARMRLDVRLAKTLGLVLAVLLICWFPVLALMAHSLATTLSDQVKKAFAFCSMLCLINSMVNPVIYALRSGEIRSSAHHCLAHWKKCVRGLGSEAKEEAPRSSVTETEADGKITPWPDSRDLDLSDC
Sequence of 5-HT transporter (h) (P31645 whole entry): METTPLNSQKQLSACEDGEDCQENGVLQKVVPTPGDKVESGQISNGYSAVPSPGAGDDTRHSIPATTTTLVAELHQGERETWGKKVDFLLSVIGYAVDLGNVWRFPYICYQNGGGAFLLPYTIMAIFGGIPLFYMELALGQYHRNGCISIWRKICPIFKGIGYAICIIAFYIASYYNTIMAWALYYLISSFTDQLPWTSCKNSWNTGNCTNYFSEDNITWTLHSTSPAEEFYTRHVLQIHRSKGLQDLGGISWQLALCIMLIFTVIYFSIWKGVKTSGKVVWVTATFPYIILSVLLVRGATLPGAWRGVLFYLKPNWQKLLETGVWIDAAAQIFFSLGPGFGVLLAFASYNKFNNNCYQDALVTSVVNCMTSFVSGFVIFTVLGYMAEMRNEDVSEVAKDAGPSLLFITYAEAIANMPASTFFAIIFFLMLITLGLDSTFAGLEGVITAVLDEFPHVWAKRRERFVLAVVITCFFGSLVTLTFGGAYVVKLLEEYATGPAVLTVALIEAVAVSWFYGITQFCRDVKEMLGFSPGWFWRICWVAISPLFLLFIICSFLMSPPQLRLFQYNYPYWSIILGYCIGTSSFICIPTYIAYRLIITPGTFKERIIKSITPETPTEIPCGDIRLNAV
Sequence of GABA transaminase (P50554 28-500): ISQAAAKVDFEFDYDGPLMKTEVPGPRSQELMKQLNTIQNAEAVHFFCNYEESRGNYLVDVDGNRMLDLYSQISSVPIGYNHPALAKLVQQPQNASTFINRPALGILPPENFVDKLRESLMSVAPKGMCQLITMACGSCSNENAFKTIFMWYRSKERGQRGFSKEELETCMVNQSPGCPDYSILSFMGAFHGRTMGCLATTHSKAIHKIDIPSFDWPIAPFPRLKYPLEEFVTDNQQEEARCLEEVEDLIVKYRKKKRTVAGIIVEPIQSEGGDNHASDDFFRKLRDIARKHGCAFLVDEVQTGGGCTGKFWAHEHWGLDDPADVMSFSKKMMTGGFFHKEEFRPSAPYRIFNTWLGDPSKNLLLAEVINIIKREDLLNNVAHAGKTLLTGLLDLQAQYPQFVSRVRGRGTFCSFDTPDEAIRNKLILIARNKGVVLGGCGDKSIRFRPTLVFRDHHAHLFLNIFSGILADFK

Fc1nc(N2CCOCC2)ccc1-c1cc2ccccc2[nH]1 [Compound 75, 4-(6-Fluoro-5-(1H-indol-2-yl)pyridin-2-yl)morpholine]
inhibition at 10 µM (GABA transaminase): -0.726%
% Inhibition, Specific binding (5-HT transporter (h)): -9.53E+00%
inhibition at 10 µM (CB2 (h)): -17.9%
% Inhibition, Specific binding (SKCa channel): 0.9001%
